Assay results as given in patent US11452731B2, “Method of treating and preventing loss of cognition” (ENDORECHERCHE, INC., priority 2009, dated 2022).

Experiment: Clinical trial ERC-205: DHEA 50 mg daily versus placebo on hot flushes in postmenopausal women (Example 10)
Type: in vivo
Conditions: 50 mg, strata 50 to 70 hot flushes per week at screening
Protocol: Postmenopausal women experiencing moderate or severe hot flushes per week (as determined by a two week diary) were randomized to receive a daily dose of either placebo or 50 mg DHEA. Fifty evaluable participants (25 patients per arm) were treated for four months with a daily assessment of hot flushes recorded in a diary completed by each participant.
Postmenopausal women aged 40 to 70 years with moderate or severe hot flushes per week, as confirmed by a two-week screening hot flush diary were enrolled after signing informed consent. The protocol was approved by the Institutional Review Board (IRB) of Le Centre Hospitalier de l'Université Laval and by Health Canada.
The primary endpoint was the change from Baseline in the weekly frequency of moderate to severe hot flushes at Week 16, after four months of treatment. The objectives also included the change from Baseline in the weekly frequency of all hot flushes and the change from Baseline in the weekly weighted severity score.
The response endpoint is the patient's paper diary which was filled in daily to specify the number and type of hot flushes as follows:
The hot flush diary began as a Screening diary for two weeks prior to randomization whereby patients had to complete the diary daily, recording the number and severity of hot flushes. The patients had to record an average of 50 or more moderate or severe hot flushes per week over the two-week period to be eligible (i.e., at least 100 hot flushes documented on the two week Screening diary).
Once randomized, the patient completed eight, two-week hot flush diaries upon beginning study medication. The diaries had to be filled out on a daily basis. The first diary was completed over the first two weeks and be returned on the two week visit. The second two-week diary was completed over the next two weeks of the first four week treatment period and was returned at the four week visit. At 4, 8, 12 and 16 week visits, two two-week diaries for hot flushes were collected.

[1] = Screening (mean of 2 w), baseline

C[C@]12CC[C@H](O)CC1=CC[C@@H]1[C@@H]2CC[C@]2(C)C(=O)CC[C@@H]12 [DHEA, dehydroepiandrosterone]
NUMBER OF ALL HOT FLUSHES PER WEEK (MEAN) [1]: 63.7
NUMBER OF MODERATE TO SEVERE HOT FLUSHES PER WEEK (MEAN) [1]: 56.7
WEIGHTED SEVERITY SCORE OF HOT FLUSHES PER WEEK (MEAN) [1]: 144.3
NUMBER OF ALL HOT FLUSHES PER WEEK (MEAN) (Week 1): 60.8
NUMBER OF MODERATE TO SEVERE HOT FLUSHES PER WEEK (MEAN) (Week 1): 54.2
WEIGHTED SEVERITY SCORE OF HOT FLUSHES PER WEEK (MEAN) (Week 1): 141.0
NUMBER OF ALL HOT FLUSHES PER WEEK (MEAN) (Week 2): 55.3
NUMBER OF MODERATE TO SEVERE HOT FLUSHES PER WEEK (MEAN) (Week 2): 49.0
WEIGHTED SEVERITY SCORE OF HOT FLUSHES PER WEEK (MEAN) (Week 2): 127.1
NUMBER OF ALL HOT FLUSHES PER WEEK (MEAN) (Week 3): 52.3
NUMBER OF MODERATE TO SEVERE HOT FLUSHES PER WEEK (MEAN) (Week 3): 46.5
WEIGHTED SEVERITY SCORE OF HOT FLUSHES PER WEEK (MEAN) (Week 3): 118.9
NUMBER OF ALL HOT FLUSHES PER WEEK (MEAN) (Week 4): 49.4
NUMBER OF MODERATE TO SEVERE HOT FLUSHES PER WEEK (MEAN) (Week 4): 44.0
WEIGHTED SEVERITY SCORE OF HOT FLUSHES PER WEEK (MEAN) (Week 4): 111.6
NUMBER OF ALL HOT FLUSHES PER WEEK (MEAN) (Week 5): 42.7
NUMBER OF MODERATE TO SEVERE HOT FLUSHES PER WEEK (MEAN) (Week 5): 38.3
WEIGHTED SEVERITY SCORE OF HOT FLUSHES PER WEEK (MEAN) (Week 5): 97.8
NUMBER OF ALL HOT FLUSHES PER WEEK (MEAN) (Week 6): 43.7
NUMBER OF MODERATE TO SEVERE HOT FLUSHES PER WEEK (MEAN) (Week 6): 39.8
WEIGHTED SEVERITY SCORE OF HOT FLUSHES PER WEEK (MEAN) (Week 6): 99.0
NUMBER OF ALL HOT FLUSHES PER WEEK (MEAN) (Week 7): 39.2
NUMBER OF MODERATE TO SEVERE HOT FLUSHES PER WEEK (MEAN) (Week 7): 34.7
WEIGHTED SEVERITY SCORE OF HOT FLUSHES PER WEEK (MEAN) (Week 7): 88.3
NUMBER OF ALL HOT FLUSHES PER WEEK (MEAN) (Week 8): 41.8
NUMBER OF MODERATE TO SEVERE HOT FLUSHES PER WEEK (MEAN) (Week 8): 38.1
WEIGHTED SEVERITY SCORE OF HOT FLUSHES PER WEEK (MEAN) (Week 8): 95.8
NUMBER OF ALL HOT FLUSHES PER WEEK (MEAN) (Week 9): 42.4
NUMBER OF MODERATE TO SEVERE HOT FLUSHES PER WEEK (MEAN) (Week 9): 38.5
WEIGHTED SEVERITY SCORE OF HOT FLUSHES PER WEEK (MEAN) (Week 9): 96.0
NUMBER OF ALL HOT FLUSHES PER WEEK (MEAN) (Week 10): 40.5
NUMBER OF MODERATE TO SEVERE HOT FLUSHES PER WEEK (MEAN) (Week 10): 36.6
WEIGHTED SEVERITY SCORE OF HOT FLUSHES PER WEEK (MEAN) (Week 10): 92.7
NUMBER OF ALL HOT FLUSHES PER WEEK (MEAN) (Week 11): 39.5
NUMBER OF MODERATE TO SEVERE HOT FLUSHES PER WEEK (MEAN) (Week 11): 35.6
WEIGHTED SEVERITY SCORE OF HOT FLUSHES PER WEEK (MEAN) (Week 11): 89.8
NUMBER OF ALL HOT FLUSHES PER WEEK (MEAN) (Week 12): 39.7
NUMBER OF MODERATE TO SEVERE HOT FLUSHES PER WEEK (MEAN) (Week 12): 35.8
WEIGHTED SEVERITY SCORE OF HOT FLUSHES PER WEEK (MEAN) (Week 12): 88.5
NUMBER OF ALL HOT FLUSHES PER WEEK (MEAN) (Week 13): 36.2
NUMBER OF MODERATE TO SEVERE HOT FLUSHES PER WEEK (MEAN) (Week 13): 32.8
WEIGHTED SEVERITY SCORE OF HOT FLUSHES PER WEEK (MEAN) (Week 13): 81.4
NUMBER OF ALL HOT FLUSHES PER WEEK (MEAN) (Week 14): 37.8
NUMBER OF MODERATE TO SEVERE HOT FLUSHES PER WEEK (MEAN) (Week 14): 34.2
WEIGHTED SEVERITY SCORE OF HOT FLUSHES PER WEEK (MEAN) (Week 14): 87.0
NUMBER OF ALL HOT FLUSHES PER WEEK (MEAN) (Week 15): 36.5
NUMBER OF MODERATE TO SEVERE HOT FLUSHES PER WEEK (MEAN) (Week 15): 33.7
